Experimental data as given in patent publication US4089974A, “5-Carboxy-phenylenebis(carbonylimino)benzene carboxylic and dicarboxylic acids and salts” (American Cyanamid Company, priority 1977, dated 1978).
Where a name gives a salt, the structure may show the parent alone.

Key:
[1] = Intrinsic Therapeutic Index (Code 026 versus AC); settings: Table II
From the text: The computation of an Intrinsic Therapeutic Index (ITI) was devised to correlate the results, expressed in wells, obtained in the in vitro Code 026 (C1 inhibitor) test and the in vitro anti-coagulant (AC) test into a meaningful value which would aid in the net evaluation of the activity of the compounds of this invention.
The ITI of a given compound may be defined as the antilogarithm of the logarithmic (base 2) difference between the highest serial dilution in wells which is active in the Code 026 test and the highest serial dilution in wells providing activity in the anti-coagulant test. The ITI is thus a measure of the separation of anti-complement and anti-coagulant activities; the higher the numerical value the more therapeutically useful the separation of activities.

[2] = test system: Citrated sheep plasma (CSP); experiment: in vitro anti-coagulant activity (AC), citrated sheep plasma clotting; format: biochemical
Description: The sheep RBC's, kept in suspension throughout the clotting incubation time, become enmeshed in the fibrin matrix if a clots forms. Upon centrifugation of the plate, untrapped RBC's form buttons, the sizes of which correspond to the degree of clot inhibition; this providing a measure of anti-coagulant activity (AC). Sodium heparin is used as a positive control and activity is reported in wells appearing in Table I.

human C1 = experiment: Test, Code 026 (C1 inhibitor); format: biochemical
From the text: An active inhibitor protects C2 from C1 and C4; (ii) Test, Code 035 (C3-C9 inhibitor) -- This test determines the ability of the late components of human complement (C3-C9) to lyse EAC 142 in the presence of appropriate dilutions of the test compound. An active inhibitor protects EAC 142 from lysis by human C3-C9; (iii) Test, Code 036 (C-Shunt inhibitor) -- In this test human erythrocytes rendered fragile are lysed in autologous serum via the shunt pathway activated by cobra venom factor in the presence of appropriate dilutions of the test compound. Inhibition of the shunt pathway results in failure of lysis; (iv) Forssman Vasculitis Test -- Here, the well known complement dependent lesion, Forssman vasculitis, is produced in guinea pigs by intradermal injection of rabbit anti-Forssman antiserum. […]

complement system = settings: cited from earlier work; for anticomplementary effect: British Journal of Experimental Pathology, 33, 327-339 (1952)
[3] = test system: hereditary angioneurotic edema; settings: The New England Journal of Medicine, 286, 808-812 (1972); cited from earlier work

O=C([O-])c1cc(C(=O)Nc2ccc(C(=O)[O-])c(C(=O)[O-])c2)cc(C(=O)Nc2ccc(C(=O)[O-])c(C(=O)[O-])c2)c1.[Na+].[Na+].[Na+].[Na+].[Na+] [4,4'-[5-Carboxy-1,3-phenylenebis(carbonylimino)]-diphthalic acid pentasodium salt]
Intrinsic Therapeutic Index ([1]; antilogarithm of the logarithmic (base 2) difference): 16 | Logarithmic Difference Expressed as Wells ([1]; log base 2 difference, Code 026 minus AC): +4 Wells | AC Wells ([2]; Table I, two-fold serial dilution assay, sodium heparin positive control): ≤ -2 Wells | Anti-Coagulant Activity (Wells) AC ([2]; Table II, in vitro): -2 Wells | C1 026 Wells (human C1; Table I, two-fold serial dilution assay, higher well number indicates higher activity): +2 Wells | Complement Inhibiting Activity (Wells) Code 026 (human C1; Table II, in vitro): +2 Wells

Cc1ccc(C(=O)Nc2ccc(S(=O)(=O)O)c3cc(S(=O)(=O)O)cc(S(=O)(=O)O)c23)cc1NC(=O)c1cccc(NC(=O)Nc2cccc(C(=O)Nc3cc(C(=O)Nc4ccc(S(=O)(=O)O)c5cc(S(=O)(=O)O)cc(S(=O)(=O)O)c45)ccc3C)c2)c1 [Suramin, 8-(3-benzamido-4-methylbenzamido)naphthalene-1, -3,5-trisulfonic acid]
inhibition of the complement system (complement system; Clin. Exp. Immunol., 10, 127-138 (1972)): competitive inhibitor of the complement system | treatment of hereditary angioneurotic edema [3]: used with success

Nc1ccc2cc(S(=O)(=O)O)cc(O)c2c1N=Nc1ccc(NC(=O)Nc2ccc(N=Nc3c(N)ccc4cc(S(=O)(=O)O)cc(O)c34)c(S(=O)(=O)O)c2)cc1S(=O)(=O)O [chlorazol fast pink, 3,3'-ureylenebis-[6-(2-amino-8-hydroxy-6-sulfo-1-naphthylazo)]benzenesulfonic acid, tetrasodium salt]
anticomplementary effect (complement system): reported to have an anticomplementary effect

NCCCCCC(=O)O [epsilon-aminocaproic acid]
treatment of hereditary angioneurotic edema [3]: used with success

NC[C@H]1CC[C@H](C(=O)O)CC1 [tranexamic acid]
treatment of hereditary angioneurotic edema [3]: used with success

heparin
anticomplementary effect (complement system): reported to have an anticomplementary effect
